Data as given in patent publication US20040209900A1, “Treatment of lipodystrophy (lipid redistribution syndrome)” (priority 2003, published 2004).

Test system: lipodystrophy
Assay: Observation of lipodystrophy signs and symptoms in patients using pentoxifylline for claudication
Format: in vivo, human
Source text: It is believed that 80-85% of patients respond favorably with amelioration some or all of their symptoms.

[1] = diabetic HIV positive patients using pentoxifylline for claudication

Q: For `CC(=O)CCCCn1c(=O)c2c(ncn2C)n(C)c1=O` [pentoxifylline], which central fat deposition [1] is on record?
A: resolved or remitted

Q: And the facial lines [1]?
A: decreased and/or disappeared

Q: And the leg vein prominence [1]?
A: diminished or disappeared

Q: And the “signs and symptoms of lipodystrophy” value (diabetic HIV positive patients with peripheral vascular disease and intermittent claudication, using pentoxifylline for claudication)?
A: disappeared or were ameliorated

Q: And the “patients responding favorably with amelioration of some or all of their symptoms” value (patients using pentoxifylline, stated as 'It is believed')?
A: 80-85%
